Results taken from paper PMC12328261, “Modulating Antimicrobial Activity and Structure of the Peptide Esc(1‐21) via Site‐Specific Isopeptide Bond Formation” (Journal of Peptide Science, 2025).
*1 amine or outer side, *2 acyl side, *3 side chain or, on linkers, in order; H or OH if unused. Where a SMILES comes first, the peptide text is derived from it. Bridges are numbered along the chain shown (N, C = ends). Roman numbers before positions name the chains, in order. Where no end group is shown, it is not given here. Side-chain parts run from the residue outwards. [ ]: non-standard residue; d: D form. εLys = N[C@@H](CCCCN[*:1])C(=O)[*:2]

Columns and labels:
E. coli ATCC 25922 = type: cell-based, Escherichia coli
Procedure: (§1) The antimicrobial activity of Esc(1‐21) analogs was assessed by determining the minimal inhibitory concentration (MIC) against a panel of representative Gram‐negative and Gram‐positive bacteria. […] The bacteria were then diluted in Mueller‐Hinton (MH) broth at a concentration of 2 × 10^6 colony‐forming units (CFU)/mL. Aliquots (50 μL) were added to 50 μL of MH containing serial two‐fold dilutions of the peptides, which had been previously prepared in the wells of a 96‐well plate, achieving a final cell concentration of 10^6 CFU/mL. […] To evaluate the antibiofilm activity of the tested peptides, bacteria were diluted to a cell density of 10^6 CFU/mL and aliquots of 100 μL were dispensed into the wells of a 96‐multiwell plate and incubated for 20 h at 37°C to allow biofilm formation. Planktonic cells were then removed, and each well was washed twice with 150 μL of phosphate buffered saline (PBS). Each well was filled with PBS supplemented with different 2‐fold serial dilutions of the tested peptides and the plate was incubated for 2 h at 37°C. After two washes with PBS, biofilm viability was assessed by adding 150 μL of MTT (0.5 mg/mL). The plate was incubated for 4 h at 37°C and the reaction was then stopped by adding SDS (final concentration equal to 5% v/v). The absorbance of each well was measured at 570 nm with a microplate reader (Infinite M200; Tecan, Salzburg, Austria), and the percentage of biofilm viability was calculated with respect to the untreated samples.

P. aeruginosa ATCC 15692 = type: cell-based, Pseudomonas aeruginosa
Procedure: as §1

P. aeruginosa ATCC 27853 = type: cell-based, Pseudomonas aeruginosa
Procedure: as §1

[1] = test system: S. epidermidis ATCC 12228; type: cell-based, Staphylococcus epidermidis
Procedure: as §1

S. aureus ATCC 25923 = type: cell-based, Staphylococcus aureus
Procedure: as §1

RBCs = test system: RBCs; set-up: method as in PMID 32722535; conditions: 64 µM; cited from earlier work

Row | Compound | Antimicrobial activity (MIC) (E. coli ATCC 25922) [µM] | Antimicrobial activity (MIC) (P. aeruginosa ATCC 15692) [µM] | Antimicrobial activity (MIC) (P. aeruginosa ATCC 27853) [µM] | Antimicrobial activity (MIC) [1] [µM] | Antimicrobial activity (MIC) (S. aureus ATCC 25923) [µM] | Hemolysis (RBCs)
1 | CC[C@H](C)[C@H](NC(=O)CN)C(=O)N[C@@H](Cc1ccccc1)C(=O)N[C@@H](CO)C(=O)NCCCC[C@H](N)C(=O)N[C@@H](CC(C)C)C(=O)N[C@@H](C)C(=O)NCC(=O)N[C@@H](CCCCN)C(=O)N[C@@H](CCCCN)C(=O)N[C@H](C(=O)N[C@@H](CCCCN)C(=O)N[C@@H](CC(N)=O)C(=O)N[C@@H](CC(C)C)C(=O)N[C@@H](CC(C)C)C(=O)N[C@H](C(=O)N[C@@H](CO)C(=O)NCC(=O)N[C@@H](CC(C)C)C(=O)N[C@@H](CCCCN)C(=O)NCC(N)=O)[C@@H](C)CC)[C@@H](C)CC [Esc(1‐21)ε5] (H-K([Ser-Phe-Ile-Gly])LAGKKIKNLLISGLKG-NH2) | 3.12 | 6.25 | 12.5 | 25 | > 50 | –
2 | CC[C@H](C)[C@H](NC(=O)CN)C(=O)N[C@@H](Cc1ccccc1)C(=O)N[C@@H](CO)C(=O)N[C@@H](CCCCN)C(=O)N[C@@H](CC(C)C)C(=O)N[C@@H](C)C(=O)NCC(=O)NCCCC[C@H](N)C(=O)N[C@@H](CCCCN)C(=O)N[C@H](C(=O)N[C@@H](CCCCN)C(=O)N[C@@H](CC(N)=O)C(=O)N[C@@H](CC(C)C)C(=O)N[C@@H](CC(C)C)C(=O)N[C@H](C(=O)N[C@@H](CO)C(=O)NCC(=O)N[C@@H](CC(C)C)C(=O)N[C@@H](CCCCN)C(=O)NCC(N)=O)[C@@H](C)CC)[C@@H](C)CC [Esc(1‐21)ε9] (I: H-KKIKNLLISGLKG-NH2 / II: H-GIFSKLAG; amide I:1-II:C) | 3.12 | 6.25 | 6.25 | 12.5 | > 50 | –
3 | CC[C@H](C)[C@H](NC(=O)CN)C(=O)N[C@@H](Cc1ccccc1)C(=O)N[C@@H](CO)C(=O)N[C@@H](CCCCN)C(=O)N[C@@H](CC(C)C)C(=O)N[C@@H](C)C(=O)NCC(=O)N[C@@H](CCCCN)C(=O)NCCCC[C@H](N)C(=O)N[C@H](C(=O)N[C@@H](CCCCN)C(=O)N[C@@H](CC(N)=O)C(=O)N[C@@H](CC(C)C)C(=O)N[C@@H](CC(C)C)C(=O)N[C@H](C(=O)N[C@@H](CO)C(=O)NCC(=O)N[C@@H](CC(C)C)C(=O)N[C@@H](CCCCN)C(=O)NCC(N)=O)[C@@H](C)CC)[C@@H](C)CC [Esc(1‐21)ε10] (I: H-KIKNLLISGLKG-NH2 / II: H-GIFSKLAGK; amide I:1-II:C) | 6.25 | 6.25 | 12.5 | 25 | > 50 | –
4 | CC[C@H](C)[C@H](NC(=O)CN)C(=O)N[C@@H](Cc1ccccc1)C(=O)N[C@@H](CO)C(=O)N[C@@H](CCCCN)C(=O)N[C@@H](CC(C)C)C(=O)N[C@@H](C)C(=O)NCC(=O)N[C@@H](CCCCN)C(=O)N[C@@H](CCCCN)C(=O)N[C@H](C(=O)NCCCC[C@H](N)C(=O)N[C@@H](CC(N)=O)C(=O)N[C@@H](CC(C)C)C(=O)N[C@@H](CC(C)C)C(=O)N[C@H](C(=O)N[C@@H](CO)C(=O)NCC(=O)N[C@@H](CC(C)C)C(=O)N[C@@H](CCCCN)C(=O)NCC(N)=O)[C@@H](C)CC)[C@@H](C)CC [Esc(1‐21)ε12] (H-GIFSKLAGKKI[εLys]NLLISGLKG-NH2) | 25 | 25 | 25 | > 50 | > 50 | –
5 | CC[C@H](C)[C@H](NC(=O)CN)C(=O)N[C@@H](Cc1ccccc1)C(=O)N[C@@H](CO)C(=O)N[C@@H](CCCCN)C(=O)N[C@@H](CC(C)C)C(=O)N[C@@H](C)C(=O)NCC(=O)N[C@@H](CCCCN)C(=O)N[C@@H](CCCCN)C(=O)N[C@H](C(=O)N[C@@H](CCCCN)C(=O)N[C@@H](CC(N)=O)C(=O)N[C@@H](CC(C)C)C(=O)N[C@@H](CC(C)C)C(=O)N[C@H](C(=O)N[C@@H](CO)C(=O)NCC(=O)N[C@@H](CC(C)C)C(=O)NCCCC[C@H](N)C(=O)NCC(N)=O)[C@@H](C)CC)[C@@H](C)CC [Esc(1‐21)ε20] (H-GIFSKLAGKKIKNLLISGL[εLys]G-NH2) | 1.56 | 1.56 | 1.56 | 3.12 | > 50 | –
6 | GIFSKLAGKKIKNLLISGLKG-NH2 [Esc(1‐21), Esculentin‐1a(1‐21)NH2] | – | – | – | – | – | 10-15%
